Earlier results, collected in PubChem BioAssay AID1259409 (Chemical Carcinogenesis Research Information System (CCRIS), 2018).

System: rodent chemically induced tumor inhibition, incidence and multiplicity
Experiment: CCRIS tumor inhibitor studies

## Oc1cc(O)c2c(c1)O[C@H](c1ccc(O)c(O)c1)[C@@H](O)C2
Carcinogen: 1,2-DIMETHYLHYDRAZINE [540-73-6], Species: RAT, Strain/Sex: WISTAR, Target Tissue: Type of Lesion: COLON, Dose [Carcinogen]: 20 MG/KG
  tumour outcome (control, treated, inhibition, significance): 81.3%, 58.8%, 27.7%, p<0.05
Carcinogen: 7,12-DIMETHYLBENZ[A]ANTHRACENE, 57-97-6, Dose [Inhibitor]: 0, 0.2 ML OF A 1% SOLUTION 1/D FOR 2 WK APPLIED 5 MIN POST EACH CARCINOGEN DOSE THEN 1/D FOR 4 WK DURING PROMOTION STAGE, Route [Inhibitor]: DERMAL, Species: MOUSE, Strain/Sex: SWISS/MALE, Target Tissue: Type of Lesion: SKIN: PAPILLOMA, Dose [Carcinogen]: 0.2 ML OF A 0.24% SOLUTION IN DMSO 1/D FOR 2 WK, Promoter: CROTON OIL, 8001-28-3
  tumour outcome (control, treated, inhibition, significance): 23/23 (100%), 16/23 (70%), 30%, not calculated
Carcinogen: 7,12-DIMETHYLBENZ[A]ANTHRACENE, 57-97-6, Dose [Inhibitor]: 0, 0.2 ML OF A 1% SOLUTION 1/D FOR 2 WK APPLIED 5 MIN PRIOR TO EACH CARCINOGEN DOSE (STUDY DURATION: 20 WK), Route [Inhibitor]: DERMAL, Species: MOUSE, Strain/Sex: SWISS/MALE, Target Tissue: Type of Lesion: SKIN: PAPILLOMA, Dose [Carcinogen]: 0.2 ML OF A 0.24% SOLUTION IN DMSO 1/D FOR 2 WK, Promoter: CROTON OIL, 8001-28-3
  tumour outcome (control, treated, inhibition, significance): 23/23 (100%), 20/23 (87%), 13%, not calculated
Carcinogen: 7,12-DIMETHYLBENZ[A]ANTHRACENE, 57-97-6, Dose [Inhibitor]: 0, 2.5 MG/D IN DRINKING WATER FOR DURATION OF STUDY BEGINNING 2 WK PRIOR TO CARCINOGEN DOSE (STUDY DURATION: 6 MO), Route [Inhibitor]: ORAL, Species: RAT, Strain/Sex: WISTAR/FEMALE, Target Tissue: Type of Lesion: MAMMARY GLAND: TUMOR, Dose [Carcinogen]: 10 MG IN PEANUT OIL INJECTED INTO SUBCUTANEOUS POUCH CREATED IN THE 5TH AND 6TH MAMMARY GLAND REGION, Promoter: NONE USED
  tumour outcome (control, treated, inhibition, significance): 20/20 (100%), 4/20 (20%), 80%, p<0.001
Carcinogen: 7,12-DIMETHYLBENZ[A]ANTHRACENE, 57-97-6, Dose [Inhibitor]: 0, 4 MG 2/WK FOR 20 WK BEGINNING 2 WK POST CARCINOGEN DOSE (STUDY DURATION: 22 WK), Route [Inhibitor]: DERMAL, Species: MOUSE, Strain/Sex: CF-1/FEMALE, Target Tissue: Type of Lesion: SKIN: PAPILLOMA, Dose [Carcinogen]: 25.6 UG ONCE, Promoter: 12-O-TETRADECANOYLPHORBOL-13-ACETATE, 16561-29-8
  tumour outcome (control, treated, inhibition, significance): 97%, 97%, 0%, not significant
Carcinogen: 7,12-DIMETHYLBENZ[A]ANTHRACENE, 57-97-6, Dose [Inhibitor]: 0, 12 MG 2/WK FOR 20 WK BEGINNING 2 WK POST CARCINOGEN DOSE (STUDY DURATION: 22 WK), Route [Inhibitor]: DERMAL, Species: MOUSE, Strain/Sex: CF-1/FEMALE, Target Tissue: Type of Lesion: SKIN: PAPILLOMA, Dose [Carcinogen]: 25.6 UG ONCE, Promoter: 12-O-TETRADECANOYLPHORBOL-13-ACETATE, 16561-29-8
  tumour outcome (control, treated, inhibition, significance): 97%, 91%, 6%, not significant
Carcinogen: BENZO[A]PYRENE, 50-32-8, Dose [Inhibitor]: 0, 2.5 MG/D IN DRINKING WATER FOR 8 WK BEGINNING 2 WK PRIOR TO CARCINOGEN TREATMENT (STUDY DURATION: 20 WK), Route [Inhibitor]: ORAL, Species: MOUSE, Strain/Sex: SWISS/FEMALE, Target Tissue: Type of Lesion: FORESTOMACH: TUMOR, Dose [Carcinogen]: 1 MG IN 0.1 ML PEANUT OIL 2/WK FOR 4 WK, Promoter: NONE USED
  tumour outcome (control, treated, inhibition, significance): 20/20 (100%), 16/20 (80%), 20%, not significant
Carcinogen: METHYL(ACETOXYMETHYL)NITROSAMINE, 56856-83-8, Dose [Inhibitor]: 0, 1.7 MG/D IN DRINKING WATER FOR DURATION OF STUDY BEGINNING 2 WK PRIOR TO CARCINOGEN TREATMENT (STUDY DURATION: 13 MO), Route [Inhibitor]: ORAL, Species: HAMSTER, Strain/Sex: SYRIAN/FEMALE, Target Tissue: Type of Lesion: ORAL: CAVITY, Dose [Carcinogen]: 2 MG/KG BW APPLIED TO RIGHT CHEEK POUCH 2/MO FOR 6 MO, Promoter: NONE USED
  tumour outcome (control, treated, inhibition, significance): 14/15 (93%), 4/15 (27%), 71%, p<0.001
Carcinogen: N-ETHYL-N-HYDROXYETHYLNITROSAMINE, 13147-25-6, Dose [Inhibitor]: 0, 0.8% IN DIET FOR 36 WK BEGINNING 1 WK POST CARCINOGEN TREATMENT (STUDY DURATION: 40 WK), Route [Inhibitor]: ORAL, Species: RAT, Strain/Sex: WISTAR/MALE, Target Tissue: Type of Lesion: KIDNEY: MICROADENOMA, Dose [Carcinogen]: 0.1% IN DRINKING WATER FOR 3 WK, Promoter: NONE USED
  tumour outcome (control, treated, inhibition, significance): 11/17 (65%), 12/17 (71%), -9%, not significant
Carcinogen: N-ETHYL-N-HYDROXYETHYLNITROSAMINE, 13147-25-6, Dose [Inhibitor]: 0, 0.8% IN DIET FOR 36 WK BEGINNING 1 WK POST CARCINOGEN TREATMENT (STUDY DURATION: 40 WK), Route [Inhibitor]: ORAL, Species: RAT, Strain/Sex: WISTAR/MALE, Target Tissue: Type of Lesion: KIDNEY: RENAL CELL TUMOR, Dose [Carcinogen]: 0.1% IN DRINKING WATER FOR 3 WK, Promoter: NONE USED
  tumour outcome (control, treated, inhibition, significance): 14/17 (82%), 11/17 (65%), 21%, not significant
Carcinogen: N-ETHYL-N-HYDROXYETHYLNITROSAMINE, 13147-25-6, Dose [Inhibitor]: 0, 0.8% IN DIET FOR 36 WK BEGINNING 1 WK POST CARCINOGEN TREATMENT (STUDY DURATION: 40 WK), Route [Inhibitor]: ORAL, Species: RAT, Strain/Sex: WISTAR/MALE, Target Tissue: Type of Lesion: LIVER: HEPATOCELLULAR ADENOMA, Dose [Carcinogen]: 0.1% IN DRINKING WATER FOR 3 WK, Promoter: NONE USED
  tumour outcome (control, treated, inhibition, significance): 10/17 (59%), 11/17 (65%), -10%, not significant
Carcinogen: N-ETHYL-N-HYDROXYETHYLNITROSAMINE, 13147-25-6, Dose [Inhibitor]: 0, 0.8% IN DIET FOR 36 WK BEGINNING 1 WK POST CARCINOGEN TREATMENT (STUDY DURATION: 40 WK), Route [Inhibitor]: ORAL, Species: RAT, Strain/Sex: WISTAR/MALE, Target Tissue: Type of Lesion: LIVER: HEPATOCELLULAR CARCINOMA, Dose [Carcinogen]: 0.1% IN DRINKING WATER FOR 3 WK, Promoter: NONE USED
  tumour outcome (control, treated, inhibition, significance): 7/17 (41%), 3/17 (18%), 56%, not significant
Carcinogen: N-NITROSOBIS(2-HYDROXYPROPYL)AMINE, 53609-64-6, Dose [Inhibitor]: 0, 1.5% IN DIET FOR 30 WK BEGINNING POST CARCINOGEN TREATMENT (STUDY DURATION: 35 WK), Route [Inhibitor]: ORAL, Species: HAMSTER, Strain/Sex: SYRIAN/MALE, Target Tissue: Type of Lesion: PANCREAS: ADENOCARCINOMA, Dose [Carcinogen]: 500 MG/KG 1/WK FOR 5 WK, Promoter: NONE USED
  tumour outcome (control, treated, inhibition, significance): 8/17 (47%), 5/19 (26%), 45%, not significant
Carcinogen: NONE USED, Dose [Inhibitor]: 0, 2.5 MG/D IN DRINKING WATER FROM 8 MO OF AGE (STUDY DURATION: 15 MO), Route [Inhibitor]: ORAL, Species: MOUSE, Strain/Sex: C3H/FEMALE, Target Tissue: Type of Lesion: MAMMARY GLAND: TUMOR, Promoter: NONE USED
  tumour outcome (control, treated, inhibition, significance): 12/20 (60%), 8/20 (40%), 33%, not calculated
